# Test results reported in US20250302839A1 (D&D Biopharmaceuticals, Inc., priority 2024, published 2025).
# Assays:
# [1] = test system: human donor cornea; assay: Pre- and post-treatment evaluation of corneal integrity (epithelium, stroma, endothelium; specular microscopy); settings: 10 mg/ml glutaric anhydride in 0.3M sodium phosphate buffer (pH 8.5), 60 seconds
# Method: The agent used in this example was glutaric anhydride (GA). Paired human donor corneas were evaluated prior to treatment and immediately after treatment for intact epithelium, stroma, and endothelium. Riboflavin fluorescence for the GA treatment and the non-GA treatment control were compared. The test human cornea sample was labeled 21-095656 OD, and the control human cornea sample was labeled 21-095656 OS.
# One pair human corneas were recovered by in situ removal by a certified eyebank technician and placed in LIFE4° C. and stored in Bausch & Lomb 20 ml viewing chambers, and stored at 2-8° C. Corneas were shipped on wet ice overnight to the treatment facility. Upon arrival, the corneas were warmed for 2±2 hours at 35° C. and evaluated for corneal integrity. […] At the time of the study, corneas were warmed for 2±2 hours at 35° C., and evaluated for corneal integrity.
# The control and treated cornea samples were placed in a petri dish with the epithelial side up in a laminar flow hood with enough Life4° C. corneal preservation medium to fill the endothelial side of the human cornea with medium. […] Each sample was analyzed before treatment (FIGS. 1A-1C).
# A single examiner performed all measurements. Corneal endothelium was evaluated utilizing a Konan Eyebank KeratoAnalyzer. […] Number of cells analyzed. • 8. […]
# [2] = test system: human donor cornea; assay: Penetration of riboflavin into human donor cornea, evaluated by fluorescence microscopy; type: in vitro ADME
Structure (SMILES),"effect on corneal epithelium, stroma and endothelium post-treatment [1]","disruption of corneal cell junctures permitting riboflavin diffusion ([2]; 10 mg/ml glutaric anhydride in 0.3M sodium phosphate buffer (pH 8.5), 1.0 ml for 60 seconds, continuous drops)","time until riboflavin fluorescence was exhibited ([2]; test cornea 21-095656 OD, after 10 mg/ml buffered glutaric anhydride solution for 60 seconds, riboflavin 1.46 mg/ml in PBS, 2 x 0.5 mL, intact epithelium)"
O=C1CCCC(=O)O1 [glutaric anhydride],"did not adversely affect the corneal epithelium, stroma or endothelium",disrupt cell junctures to permit diffusion of riboflavin through the epithelium and deep into the corneal stroma,–
"Cc1cc2nc3c(=O)[nH]c(=O)nc-3n(C[C@H](O)[C@H](O)[C@H](O)CO)c2cc1C [riboflavin, reference compound]",–,–,≤ 2 min
